# Measurements reported in US20250221410A1, “SUBSTITUTED 2-C-AZINES AND SALTS THEREOF, AND USE THEREOF AS HERBICIDAL ACTIVE SUBSTANCES” (BAYER AKTIENGESELLSCHAFT, priority 2022, published 2025).
# Legend:
# Format in all cases: in vivo
# VERPE: Veronica persica = assay: Post-emergence herbicidal efficacy at 1280 g/ha, VERPE; details: visual rating about 3 weeks after treatment vs untreated controls
# Experimental: (§1) Seeds of mono- and dicotyledonous weed plants were placed in plastic pots in sandy loam soil (doubly sown with in each case one species of mono- or dicotyledonous weed plants per pot), covered with soil and cultivated in a greenhouse under controlled growth conditions. 2 to 3 weeks after sowing, the test plants were treated at the one-leaf stage. The compounds of the invention, formulated in the form of wettable powders (WP) or as emulsion concentrates (EC), were applied to the green parts of the plants as aqueous suspension or emulsion with addition of 0.5% additive at a water application rate equivalent to 600 litres per hectare. After the test plants had been kept in the greenhouse under optimum growth conditions for about 3 weeks, the activity of the preparations was rated visually in comparison to untreated controls. For example, 100% activity=the plants have died, 0% activity=like control plants. Tables A1 to A12 below show the effects of selected compounds of the general formula (I) according to Table 1 on various harmful plants and at an application rate corresponding to 1280 g/ha, which were obtained by the trial procedure specified above.
# STEME: Stellaria media [1] = assay: Post-emergence herbicidal efficacy at 1280 g/ha, STEME; details: visual rating about 3 weeks after treatment vs untreated controls
# Experimental: as §1
# [2] = tested on: AMARE: Amaranthus retroflexus; assay: Pre-emergence herbicide efficacy at 1280 g/ha, AMARE; details: visual scoring after about 3 weeks vs untreated controls
# Description: (§2) Seeds of mono- and dicotyledonous weed plants were placed in plastic pots in sandy loam soil (doubly sown with one species each of mono- or dicotyledonous weed plants per pot) and covered with soil. The compounds of the invention, formulated in the form of wettable powders (WP) or as emulsion concentrates (EC), were then applied to the surface of the covering soil as aqueous suspension or emulsion with addition of 0.5% additive at a water application rate of 600 litres per hectare (converted). After the treatment, the pots were placed in a greenhouse and kept under good growth conditions for the test plants. After about 3 weeks, the efficacy of the preparations was scored visually in comparison with untreated controls as percentages. For example, 100% activity=the plants have died, 0% activity=like control plants. Tables C1 to C12 below show the effects of selected compounds of the general formula (I) according to Table 1 on various harmful plants and at an application rate corresponding to 1280 g/ha, which were obtained by the trial procedure specified above.
# [3] = tested on: AMARE: Amaranthus retroflexus; assay: Post-emergence herbicidal efficacy at 1280 g/ha, AMARE; details: rated visually after about 3 weeks vs untreated controls, 100% = plants have died, 0% = like control plants
# Experimental: as §1
# KCHSC: Kochia scoparia = assay: Post-emergence herbicidal efficacy at 1280 g/ha, KCHSC; details: visual rating about 3 weeks after treatment vs untreated controls
# Experimental: as §1
# [4] = tested on: ABUTH: Abutilon theophrasti; assay: Pre-emergence herbicide efficacy at 1280 g/ha, ABUTH; details: visual scoring after about 3 weeks vs untreated controls
# Description: as §2
# [5] = tested on: ABUTH: Abutilon theophrasti; assay: Post-emergence herbicidal efficacy at 1280 g/ha, ABUTH; details: rated visually after about 3 weeks vs untreated controls, 100% = plants have died, 0% = like control plants
# Experimental: as §1
# POAAN: Poa annua [6] = assay: Post-emergence herbicidal efficacy at 1280 g/ha, POAAN; details: visual rating about 3 weeks after treatment vs untreated controls
# Experimental: as §1
# POAAN: Poa annua [7] = assay: Pre-emergence herbicide efficacy at 1280 g/ha, POAAN; details: visual scoring after about 3 weeks vs untreated controls
# Description: as §2
# SETVI: Setaria viridis = assay: Pre-emergence herbicide efficacy at 1280 g/ha, SETVI; details: visual scoring vs untreated controls
# Description: as §2
# [8] = tested on: ECHCG: Echinochloa crus-galli; assay: Pre-emergence herbicide efficacy at 1280 g/ha, ECHCG; details: visual scoring after about 3 weeks vs untreated controls
# Description: as §2
# STEME: Stellaria media [9] = assay: Pre-emergence herbicide efficacy at 1280 g/ha, STEME; details: visual scoring vs untreated controls
# Description: as §2
# [10] = tested on: DIGSA: Digitaria sanguinalis; assay: Pre-emergence herbicide efficacy at 1280 g/ha, DIGSA; details: visual scoring after about 3 weeks vs untreated controls
# Description: as §2
Structure (SMILES),Post-emergence efficacy against VERPE (VERPE: Veronica persica) [%],Post-emergence efficacy against STEME (STEME: Stellaria media [1]) [%],Pre-emergence efficacy against AMARE [2] [%],Post-emergence efficacy at 1280 g/ha against AMARE in % [3] [%],Post-emergence efficacy against KCHSC (KCHSC: Kochia scoparia) [%],Pre-emergence efficacy against ABUTH [4] [%],Post-emergence efficacy at 1280 g/ha against ABUTH in % [5] [%],Post-emergence efficacy against POAAN (POAAN: Poa annua [6]) [%],Pre-emergence efficacy against POAAN (POAAN: Poa annua [7]) [%],Pre-emergence efficacy against SETVI in % (SETVI: Setaria viridis) [%],Pre-emergence efficacy against ECHCG [8] [%],Pre-emergence efficacy against STEME in % (STEME: Stellaria media [9]) [%],Pre-emergence efficacy against DIGSA [10] [%]
Cc1cccc(C(C#N)c2ncc(Cl)cn2)c1Oc1ccc(F)cc1 (racemic) [Example 1-30],90,,,,,,,,,,,,
COc1cccc(C(C#N)c2ncc(Cl)cn2)c1Oc1ccc(F)cc1 (racemic) [Example 1-32],90,90,90,90,,,,,,,,,
N#CC(c1ncc(Cl)cn1)c1cccc(Br)c1Oc1ccc(F)cc1 (racemic) [Example 1-36],90,,,,,,,,,,,,
N#CC(c1ncc(Cl)cn1)c1cccc(C(F)(F)F)c1Oc1ccc(F)cc1 (racemic) [Example 1-39],100,,,,90,100,,,,,,,
N#CC(c1ncc(Cl)cn1)c1ccccc1-n1cc(C(F)(F)F)cn1 (racemic) [Example 1-41],90,,,90,,,90,90,90,,,,
Fc1cnc(Cc2ccccc2CCCC(F)(F)F)nc1 [Example 1-3],90,90,,90,90,,90,100,,,,,
FC(F)(F)CCCOc1ccccc1Cc1ncc(Cl)cn1 [Example 1-8],100,90,100,,,,,,,90,90,90,100
"N#CC(c1ncc(Cl)cn1)c1cccc(F)c1Oc1ccc(F)cc1 (stereo not shown) [Example 1-34, (5-Chloropyrimidin-2-yl)[3-fluoro-2-(4-fluorophenoxy)phenyl]acetonitrile]",100,90,90,90,,,,,,,,90,
N#CC(c1ncc(Cl)cn1)c1ccccc1CCCC(F)(F)F (stereo not shown) [Example 1-68],,,,100,,,,,,,,,
N#CC(c1ncc(Cl)cn1)c1ccccc1Cc1ccc(F)cc1 (stereo not shown) [Example 1-69],100,90,,90,90,100,,,,,,,
N#Cc1cccc(C(C#N)c2ncc(Cl)cn2)c1-n1cc(C(F)(F)F)cn1 (stereo not shown) [Example 1-71],90,90,100,100,100,,,,,,,90,
N#CC(c1ncc(F)cn1)c1ccccc1CCCC(F)(F)F (stereo not shown) [Example 1-72],,,,,,,,,90,,,,
N#CC(c1ccc(Cl)cn1)c1ccccc1CCCC(F)(F)F (stereo not shown) [Example 1-73],90,,90,90,,,,,,,,,
Fc1cc(Cl)cnc1Oc1ccccc1Cc1ncccn1 [Example 1-77],90,90,100,90,,90,,90,90,,,90,90
N#CC(c1ncc(Cl)cn1)c1ccccc1-c1ccc(F)c(F)c1 (stereo not shown) [Example 1-78],,,,90,,,,,90,,,,
N#CC(c1ncc(F)cn1)c1ccccc1-c1ccc(F)c(F)c1 (stereo not shown) [Example 1-79],,,,,,,,,90,,,,
N#CC(c1ccc(Cl)cn1)c1ccccc1-c1ccc(F)c(F)c1 (stereo not shown) [Example 1-80],90,90,100,100,,90,,,90,,,100,
N#CC(c1ccc(Cl)cn1)c1ccccc1Cc1ccc(F)cc1 (stereo not shown) [Example 1-82],90,,100,100,90,100,,,90,,,100,
FC(F)(F)CCCc1ccccc1Cc1ccc(Cl)cn1 [Example 1-94],100,,,90,,,,90,,,,,
Fc1ccc(-c2ccccc2Cc2ccc(Cl)cn2)cc1F [Example 1-97],100,90,100,100,100,,100,100,,,,,
Fc1cnc(Cc2ccccc2SCCC(F)(F)F)nc1 [Example 1-111],100,100,100,100,100,,90,100,,,,,90
Clc1cnc(Cc2ccccc2Sc2ccc(Cl)cc2Cl)nc1 [Example 1-137],90,90,100,100,90,,90,90,90,100,,100,
Cc1cc(C)c(-c2cc(C(F)F)no2)c(C(C#N)c2ncc(Cl)cn2)n1 (stereo not shown) [Example 2-6],,,90,,,100,,,,,,100,90
